Measured values from patent US6093732A, “4-hydroxyquinoline-3-carboxamides and hydrazides as antiviral agents” (Pharmacia & Upjohn Company, priority 1998, dated 2000).
Blank lines part the entries; values can stand above or below the molecule they belong to.

How the values were obtained:
Type in all cases: biochemical
VZV polymerase = VZV polymerase (Varicella-zoster virus, UniProt P09252); test: VZV polymerase assay (procedure similar to the HCMV polymerase SPA); settings: Table 1, read-out: Antiviral Selective Polymerase IC50 Values, VZV
VZV polymerase, sequence (P09252 whole entry): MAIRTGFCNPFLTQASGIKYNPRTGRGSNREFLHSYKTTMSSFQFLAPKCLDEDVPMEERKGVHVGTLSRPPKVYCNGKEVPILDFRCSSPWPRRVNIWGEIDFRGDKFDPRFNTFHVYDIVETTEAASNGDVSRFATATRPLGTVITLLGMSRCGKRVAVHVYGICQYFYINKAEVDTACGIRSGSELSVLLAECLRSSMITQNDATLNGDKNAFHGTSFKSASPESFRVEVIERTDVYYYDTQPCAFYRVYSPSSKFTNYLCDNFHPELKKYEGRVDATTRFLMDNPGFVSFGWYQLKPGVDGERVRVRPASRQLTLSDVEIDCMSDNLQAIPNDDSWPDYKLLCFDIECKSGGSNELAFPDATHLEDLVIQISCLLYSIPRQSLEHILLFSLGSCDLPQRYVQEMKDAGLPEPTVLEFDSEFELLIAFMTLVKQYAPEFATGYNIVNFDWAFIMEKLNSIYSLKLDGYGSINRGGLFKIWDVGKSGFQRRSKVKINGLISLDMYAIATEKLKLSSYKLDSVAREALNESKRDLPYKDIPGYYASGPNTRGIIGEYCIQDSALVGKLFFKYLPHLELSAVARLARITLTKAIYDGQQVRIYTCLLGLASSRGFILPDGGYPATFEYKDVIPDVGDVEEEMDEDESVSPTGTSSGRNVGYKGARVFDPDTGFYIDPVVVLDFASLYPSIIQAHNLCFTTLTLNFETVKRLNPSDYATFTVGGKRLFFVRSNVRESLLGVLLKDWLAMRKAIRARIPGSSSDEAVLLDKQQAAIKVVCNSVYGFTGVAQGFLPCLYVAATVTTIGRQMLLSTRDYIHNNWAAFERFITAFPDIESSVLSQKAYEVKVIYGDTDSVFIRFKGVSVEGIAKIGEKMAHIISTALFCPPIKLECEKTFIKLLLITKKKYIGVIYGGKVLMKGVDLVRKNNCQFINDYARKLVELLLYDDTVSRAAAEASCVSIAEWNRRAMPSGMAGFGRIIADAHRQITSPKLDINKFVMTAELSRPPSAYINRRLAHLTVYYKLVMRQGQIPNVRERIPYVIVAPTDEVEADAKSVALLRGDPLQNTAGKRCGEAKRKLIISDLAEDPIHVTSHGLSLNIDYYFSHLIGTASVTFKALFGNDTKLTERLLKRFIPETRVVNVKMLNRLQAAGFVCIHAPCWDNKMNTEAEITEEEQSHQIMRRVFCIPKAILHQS
Description: (§1) The HCMV polymerase assay is performed using a scintillation proximity assay (SPA) as described in several references, such as N. D. Cook, et al., Pharmaceutical Manufacturing International, pages 49-53 (1992); K. Takeuchi, Laboratory Practice, September issue (1992); U.S. Pat. No. 4,568,649 (1986); which are incorporated by reference herein. Reactions are performed in 96-well plates. The assay is conducted in 100 μl volume with 5.4 mM HEPES (pH 7.5), 11.7 mM KCl, 4.5 mM MgCl2, 0.36 mg/ml BSA, and 90 nM ^3 H-dTTP. Assays are run with and without CHAPS, (3-[(3-Cholamidopropyl)-dimethylammonio]-1-propane-sulfonate) at a final concentration of 2 mM. HCMV polymerase is diluted in enzyme dilution buffer containing 50% glycerol, 250 mM NaCl, 10 mM HEPES (pH 7.5), 100 μg/ml BSA, and 0.01% sodium azide. The HCMV polymerase, which is expressed in recombinant baculovirus-infected SF-9 cells and purified according to literature procedures, is added at 10% (or 10 μl) of the final reaction volume, i.e., 100 μl. Compounds are diluted in 50% DMSO and 10 μl are added to each well. Control wells contain an equivalent concentration of DMSO. Unless noted otherwise, reactions are initiated via the addition of 6 nM biotinylated poly(dA)-oligo(dT) template/primer to reaction mixtures containing the enzyme, substrate, and compounds of interest. Plates are incubated in a 25° C. or 37° C. H2 O bath and terminated via the addition of 40 μl/reaction of 0.5 M EDTA (pH 8) per well. Reactions are terminated within the time-frame during which substrate incorporation is linear and varied depending upon the enzyme and conditions used, i.e., 30 min. for HCMV polymerase. Ten μl of streptavidin-SPA beads (20 mg/ml in PBS/10% glycerol) are added following termination of the reaction. Plates are incubated 10 min. at 37° C., then equilibrated to room temperature, and counted on a Packard Topcount. Linear regressions are performed and IC50 's are calculated using computer software.
(§2) A modified version of the above HCMV polymerase assay is performed as described above, but with the following changes: Compounds are diluted in 100% DMSO until final dilution into assay buffer. In the previous assay, compounds are diluted in 50% DMSO. 4.5 mM dithiotherotol (DTT) is added to the polymerase buffer. […] Other viral polymerase assays are performed using procedures similar to those described above.

HCMV polymerase = target: T1, HCMV polymerase (Human cytomegalovirus, UniProt P08546); test: HCMV polymerase scintillation proximity assay (SPA), modified version; settings: CMV polymerase; Table 1; modified assay with 4.5 mM DTT, compounds in 100% DMSO; read-out: Antiviral Selective Polymerase IC50 Values, CMV
T1 construct: made in house; host or cells: recombinant baculovirus-infected SF-9 cells
T1 sequence (P08546 whole entry): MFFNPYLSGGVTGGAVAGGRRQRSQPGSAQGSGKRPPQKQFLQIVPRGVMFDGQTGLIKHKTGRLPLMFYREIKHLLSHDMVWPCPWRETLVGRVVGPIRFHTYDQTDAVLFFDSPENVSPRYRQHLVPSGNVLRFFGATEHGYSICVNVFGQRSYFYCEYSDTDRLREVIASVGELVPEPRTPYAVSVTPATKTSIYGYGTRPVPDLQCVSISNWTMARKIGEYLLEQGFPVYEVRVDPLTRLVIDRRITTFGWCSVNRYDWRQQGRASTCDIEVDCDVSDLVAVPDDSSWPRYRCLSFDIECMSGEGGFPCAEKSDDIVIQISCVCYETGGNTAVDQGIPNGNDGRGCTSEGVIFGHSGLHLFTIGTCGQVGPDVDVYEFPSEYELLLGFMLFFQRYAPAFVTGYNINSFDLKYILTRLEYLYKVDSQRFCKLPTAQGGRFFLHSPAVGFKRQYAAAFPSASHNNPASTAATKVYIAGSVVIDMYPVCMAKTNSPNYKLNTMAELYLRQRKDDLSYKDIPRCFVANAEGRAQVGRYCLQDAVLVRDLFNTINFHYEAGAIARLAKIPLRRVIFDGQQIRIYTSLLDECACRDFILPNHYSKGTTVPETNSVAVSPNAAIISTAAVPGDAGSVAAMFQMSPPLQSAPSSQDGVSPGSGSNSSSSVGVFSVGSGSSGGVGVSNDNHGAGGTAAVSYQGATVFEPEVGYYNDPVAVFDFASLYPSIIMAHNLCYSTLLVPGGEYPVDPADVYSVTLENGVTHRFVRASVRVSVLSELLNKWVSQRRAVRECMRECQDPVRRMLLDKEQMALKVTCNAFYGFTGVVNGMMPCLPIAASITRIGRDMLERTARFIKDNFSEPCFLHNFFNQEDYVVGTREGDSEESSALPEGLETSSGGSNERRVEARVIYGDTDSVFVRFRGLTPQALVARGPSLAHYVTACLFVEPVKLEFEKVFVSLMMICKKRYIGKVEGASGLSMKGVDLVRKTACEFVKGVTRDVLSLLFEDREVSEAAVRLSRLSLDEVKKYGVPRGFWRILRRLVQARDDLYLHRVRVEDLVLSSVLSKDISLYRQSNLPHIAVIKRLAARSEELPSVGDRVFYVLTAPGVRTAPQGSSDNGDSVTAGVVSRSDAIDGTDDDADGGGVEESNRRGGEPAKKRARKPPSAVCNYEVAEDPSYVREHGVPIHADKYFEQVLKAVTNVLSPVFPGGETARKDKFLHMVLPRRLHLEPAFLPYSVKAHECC
Summary of the method: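 Recombinant polymerase (baculovirus/SF-9) in 5.4 mM HEPES pH 7.5, 11.7 mM KCl, 4.5 mM MgCl2, 0.36 mg/ml BSA, 90 nM 3H-dTTP, ±2 mM CHAPS; started with 6 nM biotinylated poly(dA)-oligo(dT), 25° C or 37° C, EDTA-stopped in linear range (30 min for HCMV). Streptavidin-SPA read; IC50 by linear regression. Modified version: 100% DMSO compound dilution, 4.5 mM DTT added.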

HSV polymerase = HSV polymerase (Human herpesvirus 1, UniProt P04293); test: HSV polymerase assay (procedure similar to the HCMV polymerase SPA); settings: Table 1, read-out: Antiviral Selective Polymerase IC50 Values, HSV
HSV polymerase, sequence (P04293 whole entry): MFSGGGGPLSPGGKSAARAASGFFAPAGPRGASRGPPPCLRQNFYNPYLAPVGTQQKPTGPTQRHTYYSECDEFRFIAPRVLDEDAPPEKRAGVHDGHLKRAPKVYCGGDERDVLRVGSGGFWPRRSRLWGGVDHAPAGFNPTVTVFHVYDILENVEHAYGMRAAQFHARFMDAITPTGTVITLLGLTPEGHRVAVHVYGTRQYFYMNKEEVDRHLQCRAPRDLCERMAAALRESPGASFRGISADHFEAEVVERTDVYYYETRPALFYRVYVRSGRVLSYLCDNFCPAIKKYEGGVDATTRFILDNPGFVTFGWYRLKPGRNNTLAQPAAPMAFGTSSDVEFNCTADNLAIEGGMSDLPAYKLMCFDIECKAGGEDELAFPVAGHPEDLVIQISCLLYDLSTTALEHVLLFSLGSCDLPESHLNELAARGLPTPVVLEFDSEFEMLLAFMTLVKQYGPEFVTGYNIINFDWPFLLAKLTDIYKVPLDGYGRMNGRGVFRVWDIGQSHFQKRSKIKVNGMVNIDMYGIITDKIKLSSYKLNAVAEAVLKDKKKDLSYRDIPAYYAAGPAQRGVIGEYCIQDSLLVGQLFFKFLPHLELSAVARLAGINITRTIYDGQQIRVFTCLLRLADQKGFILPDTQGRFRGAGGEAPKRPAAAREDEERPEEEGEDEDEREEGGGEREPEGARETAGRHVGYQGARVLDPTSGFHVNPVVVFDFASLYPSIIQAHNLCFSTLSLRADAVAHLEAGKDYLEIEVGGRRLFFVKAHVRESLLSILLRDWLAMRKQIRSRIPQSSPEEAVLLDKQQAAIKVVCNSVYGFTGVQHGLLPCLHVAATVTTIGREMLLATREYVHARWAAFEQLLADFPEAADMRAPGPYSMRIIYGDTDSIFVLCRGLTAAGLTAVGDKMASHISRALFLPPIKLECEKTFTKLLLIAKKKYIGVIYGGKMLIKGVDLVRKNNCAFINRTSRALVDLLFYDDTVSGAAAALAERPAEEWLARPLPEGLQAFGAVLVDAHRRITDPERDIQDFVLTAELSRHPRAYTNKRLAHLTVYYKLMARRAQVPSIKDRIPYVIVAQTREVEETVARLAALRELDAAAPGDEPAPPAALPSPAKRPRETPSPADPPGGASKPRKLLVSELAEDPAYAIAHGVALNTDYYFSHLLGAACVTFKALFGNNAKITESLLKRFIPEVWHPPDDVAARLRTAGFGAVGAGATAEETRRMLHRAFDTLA
Description: as §1, §2

Structure (SMILES): O=C(NCc1ccc(Cl)cc1)c1cnc2c(F)cc(C#CCO)cc2c1O [Example 53, N-[(4-Chlorophenyl)methyl]-8-fluoro-4-hydroxy-6-(3-hydroxy-1-propynyl)-3-quinolinecarboxamide]
IC50 (VZV polymerase): 390 nM
IC50 (HCMV polymerase): < 780 nM
IC50 (HSV polymerase): 640 nM

Structure (SMILES): O=C(NCc1ccc(Cl)cc1)c1cnc2c(F)cc(-c3cccs3)cc2c1O [Example 75, N-[(4-Chlorophenyl)methyl]-8-fluoro-4-hydroxy-6-(2-thiophenyl)-3-quinolinecarboxamide]
IC50 (VZV polymerase): 160 nM
IC50 (HCMV polymerase): 170 nM
IC50 (HSV polymerase): 430 nM

Structure (SMILES): CC(C)(O)CCc1cc(F)c2ncc(C(=O)NCc3ccc(Cl)cc3)c(O)c2c1 [Example 106, N-(4-Chlorobenzyl)-8-fluoro-4-hydroxy-6-(3-hydroxy-3-methylbutyl)-3-quinolinecarboxamide]
IC50 (VZV polymerase): 9600 nM
IC50 (HCMV polymerase): 10300 nM
IC50 (HSV polymerase): 16400 nM

Structure (SMILES): COc1cc(C#CCO)cc2c(O)c(C(=O)NCc3ccc(Cl)cc3)cnc12 [Example 118, N-(4-Chlorobenzyl)-4-hydroxy-6-(3-hydroxy-1-propynyl)-8-methoxy-3-quinolinecarboxamide]
IC50 (VZV polymerase): 200 nM
IC50 (HCMV polymerase): 670 nM
IC50 (HSV polymerase): 660 nM

Structure (SMILES): COCC#Cc1cc(OC)c2ncc(C(=O)NCc3ccc(Cl)cc3)c(O)c2c1 [Example 119, N-(4-Chlorobenzyl)-4-hydroxy-8-methoxy-6-(3-methoxy-1-propynyl)-3-quinolinecarboxamide]
IC50 (VZV polymerase): 570 nM
IC50 (HCMV polymerase): 1500 nM
IC50 (HSV polymerase): 730 nM

Structure (SMILES): N#C/C=C/c1cc(F)c2ncc(C(=O)NCc3ccc(Cl)cc3)c(O)c2c1 [Example 133, N-(4-Chlorobenzyl)-6-[(E)-2-cyanoethenyl]-8-fluoro-4-hydroxy-3-quinolinecarboxamide]
IC50 (VZV polymerase): 2200 nM
IC50 (HCMV polymerase): 4000 nM
IC50 (HSV polymerase): 3200 nM

Structure (SMILES): O=C(NCc1ccc(Cl)cc1)c1c[nH]c2ccc(/C=C/CO)cc2c1=O [Example 136, N-[(4-Chlorophenyl)methyl]-1,4-dihydro-6-[(1E)-3-hydroxy-1-propenyl]-4-oxo-3-quinolinecarboxamide]
IC50 (VZV polymerase): 390 nM
IC50 (HCMV polymerase): 680 nM
IC50 (HSV polymerase): 700 nM

Structure (SMILES): N#CCCc1cc(F)c2ncc(C(=O)NCc3ccc(Cl)cc3)c(O)c2c1 [Example 138, N-(4-Chlorobenzyl)-6-(2-cyanoethyl)-8-fluoro-4-hydroxy-3-quinolinecarboxamide]
IC50 (VZV polymerase): 2000 nM
IC50 (HCMV polymerase): 4700 nM
IC50 (HSV polymerase): 3500 nM

Structure (SMILES): CS(=O)(=O)OCCCc1cc(F)c2ncc(C(=O)NCc3ccc(Cl)cc3)c(O)c2c1 [Example 142, 3-(3-([(4-Chlorobenzyl)amino]carbonyl}-8-fluoro-4-hydroxy-6-quinolinyl)propyl methanesulfonate]
IC50 (VZV polymerase): 2100 nM
IC50 (HCMV polymerase): 3800 nM
IC50 (HSV polymerase): 2900 nM

Structure (SMILES): O=C(CBr)OCCCc1cc(F)c2ncc(C(=O)NCc3ccc(Cl)cc3)c(O)c2c1 [Example 145, 3-(3-{[(4-Chlorobenzyl)amino]carbonyl}-8-fluoro-4-hydroxy-6-quinolinyl)propyl 2-bromoacetate]
IC50 (VZV polymerase): 2500 nM
IC50 (HCMV polymerase): 2900 nM
IC50 (HSV polymerase): 3500 nM

Structure (SMILES): CN(C)CC(=O)OCCCc1cc(F)c2ncc(C(=O)NCc3ccc(Cl)cc3)c(O)c2c1 [Example 148, 3-(3-{[(4-Chlorobenzyl)amino]carbonyl}-8-fluoro-4-hydroxy-6-quinolinyl)propyl 2-(dimethylamino)acetate]
IC50 (VZV polymerase): 1000 nM
IC50 (HCMV polymerase): 2400 nM
IC50 (HSV polymerase): 1400 nM

Structure (SMILES): O=C(NCc1ccc(Cl)cc1)c1cnc2c(F)cc(F)c(F)c2c1O [Example 168, N-[(4-Chlorophenyl)methyl]-5,6,8-trifluoro-4-hydroxy-3-quinolinecarboxamide]
IC50 (VZV polymerase): 4100 nM
IC50 (HCMV polymerase): 10000 nM
IC50 (HSV polymerase): 8400 nM

Structure (SMILES): O=C(NCc1ccc(Cl)cc1)c1cnc2ccc(-c3cccs3)cc2c1O [Example 178, N-(4-Chlorobenzyl)-4-hydroxy-6-(2-thienyl)-3-quinolinecarboxamide]
IC50 (VZV polymerase): 640 nM
IC50 (HCMV polymerase): 150 nM
IC50 (HSV polymerase): 800 nM

Structure (SMILES): O=C(NCc1ccc(Cl)cc1)c1cnc2ccc(CN3CCOCC3)cc2c1O [Example 191, N-(4-Chlorobenzyl)-4-hydroxy-6-(4-morpholinylmethyl)-3-quinolinecarboxamide]
IC50 (VZV polymerase): 640 nM
IC50 (HCMV polymerase): 500 nM
IC50 (HSV polymerase): 630 nM

Other lines, results leading:

IC50 (VZV polymerase): 7500 nM
IC50 (HCMV polymerase): 10600 nM
IC50 (HSV polymerase): 14300 nM
Structure (SMILES): CN(C)c1ccc2ncc(C(=O)NCc3ccc(Cl)cc3)c(O)c2c1 [Example 30, N-[(4-Chlorophenyl)methyl]-6-(dimethylamino)-4-hydroxy-3-quinolinecarboxamide]

IC50 (VZV polymerase): 26000 nM
IC50 (HCMV polymerase): 26200 nM
IC50 (HSV polymerase): 81500 nM
Structure (SMILES): CC(=O)Nc1ccc2ncc(C(=O)NCc3ccc(Cl)cc3)c(O)c2c1 [Example 31, 6-(Acetylamino)-N-[(4-chlorophenyl)methyl]-4-hydroxy-3-quinolinecarboxamide]

IC50 (VZV polymerase): 53800 nM
IC50 (HCMV polymerase): 22000 nM
IC50 (HSV polymerase): > 100000 nM
Structure (SMILES): O=C(NCc1ccc(Cl)cc1)c1cnc2cc(-n3cccc3)ccc2c1O [Example 32, N-[(4-Chlorophenyl)methyl]-4-hydroxy-7-(1-pyrrolyl)-3-quinolinecarboxamide]

IC50 (VZV polymerase): 90 nM
IC50 (HCMV polymerase): 140 nM
IC50 (HSV polymerase): 200 nM
Structure (SMILES): O=C(NCc1ccc(Cl)cc1)c1cnc2c(F)cc(CCCCO)cc2c1O [Example 99, N-(4-Chlorobenzyl)-8-fluoro-4-hydroxy-6-(4-hydroxybutyl)-3-quinolinecarboxamide]

IC50 (VZV polymerase): 80 nM
IC50 (HCMV polymerase): 270 nM
IC50 (HSV polymerase): 250 nM
Structure (SMILES): COc1cc(CCCO)cc2c(O)c(C(=O)NCc3ccc(Cl)cc3)cnc12 [Example 120, N-(4-Chlorobenzyl)-4-hydroxy-6-(3-hydroxypropyl)-8-methoxy-3-quinolinecarboxamide]

IC50 (VZV polymerase): 390 nM
IC50 (HCMV polymerase): 250 nM
IC50 (HSV polymerase): 600 nM
Structure (SMILES): O=C(NCc1ccc(Cl)cc1)c1cnc2c(OCCO)cc(CCCO)cc2c1O [Example 124, N-(4-Chlorobenzyl)-4-hydroxy-8-(2-hydroxyethoxy)-6-(3-hydroxypropyl)-3-quinolinecarboxamide]

IC50 (VZV polymerase): 1700 nM
IC50 (HCMV polymerase): 870 nM
IC50 (HSV polymerase): 2500 nM
Structure (SMILES): CC(C)(CCO)c1ccc2ncc(C(=O)NCc3ccc(Cl)cc3)c(O)c2c1 [Example 125, N-(4-Chlorobenzyl)-4-hydroxy-6-(3-hydroxy-1,1-dimethylpropyl)-3-quinolinecarboxamide]

IC50 (VZV polymerase): 190 nM
IC50 (HCMV polymerase): 900 nM
IC50 (HSV polymerase): 720 nM
Structure (SMILES): O=C(NCc1ccc(Cl)cc1)c1cnc2ccc(C#CCO)cc2c1O [Example 134, N-(4-Chlorobenzyl)-4-hydroxy-6-(3-hydroxy-1-propynyl)-3-quinolinecarboxamide]

IC50 (VZV polymerase): 1000 nM
IC50 (HCMV polymerase): 1400 nM
IC50 (HSV polymerase): 1700 nM
Structure (SMILES): O=C(NCc1ccc(Cl)cc1)c1cnc2cc(CCCCO)ccc2c1O [Example 140, N-(4-Chlorobenzyl)-4-hydroxy-7-(4-hydroxybutyl)-3-quinolinecarboxamide]

IC50 (VZV polymerase): 70 nM
IC50 (HCMV polymerase): 280 nM
IC50 (HSV polymerase): 280 nM
Structure (SMILES): O=C(NCc1ccc(Cl)cc1)c1cnc2ccc(CCCO)cc2c1O [Example 144, N-(4-Chlorobenzyl)-4-hydroxy-6-(3-hydroxypropyl)-3-quinolinecarboxamide]

IC50 (VZV polymerase): 890 nM
IC50 (HCMV polymerase): 920 nM
IC50 (HSV polymerase): 1800 nM
Structure (SMILES): CC(O)CCc1ccc2ncc(C(=O)NCc3ccc(Cl)cc3)c(O)c2c1 (stereo not drawn) [Example 157, N-(4-Chlorobenzyl)-4-hydroxy-6-(3-hydroxybutyl)-3-quinolinecarboxamide]

IC50 (VZV polymerase): 660 nM
IC50 (HCMV polymerase): 1800 nM
IC50 (HSV polymerase): 1400 nM
Structure (SMILES): O=C(NCc1ccc(Cl)cc1)c1cnc2ccc(OCCO)cc2c1O [Example 179, N-(4-Chlorobenzyl)-4-hydroxy-6-(2-hydroxyethoxy)-3-quinolinecarboxamide]
